Values after ≈ are worked out from the molar mass of the structure shown. Square brackets hold non-standard residues; d marks the D form. Peptide text beside a SMILES is read from it. * marks the point of attachment. ξ: configuration not given here. X2 = CC[C@H](C)[C@@H](CN[C@@H](Cc1ccccc1)C(=O)OC)N*; X1 = O=C(OC(C(F)(F)F)C(F)(F)F)*; ξP = O=C(O)C1CCCN1
Experiments:
PC-3 [1] = assay: Anticancer activity against human PC-3 cells assessed as cell growth inhibition measured after 48 hrs by MTT assay; type: functional, cell-based; conditions: PC-3, 48 h
PC-3 [2] = assay: Potency index, ratio of cisplatin IC50 to test compound IC50 for anticancer activity against human PC-3 cells; type: functional
HCT-116 [3] = assay: Potency index, ratio of cisplatin IC50 to test compound IC50 for anticancer activity against human HCT-116 cells; type: functional
HepG2 [4] = assay: Anticancer activity against human HepG2 cells assessed as cell growth inhibition measured after 48 hrs by MTT assay; type: functional, cell-based; conditions: HepG2, 48 h
HCT-116 [5] = assay: Anticancer activity against human HCT-116 cells assessed as cell growth inhibition measured after 48 hrs by MTT assay; type: functional, cell-based; conditions: HCT-116, 48 h
HepG2 [6] = assay: Potency index, ratio of cisplatin IC50 to test compound IC50 for anticancer activity against human HepG2 cells; type: functional
HCT-116 [7] = assay: Anticancer activity against human HCT-116 cell assessed as cell growth inhibition; type: functional, cell-based
PC-3 [8] = assay: Anticancer activity against human PC-3 cell assessed as cell growth inhibition; type: functional, cell-based
HepG2 [9] = assay: Anticancer activity against human HepG2 cell assessed as cell growth inhibition; type: functional, cell-based
MCF7 [10] = assay: Anticancer activity against human MCF7 cells assessed as cell growth inhibition by MTT assay; type: functional, cell-based
A549 [11] = assay: Anticancer activity against human A549 cells assessed as cell growth inhibition by MTT assay; type: functional, cell-based
MCF7 [12] = assay: Anticancer activity against human MCF7 cells assessed as cell growth inhibition by SRB assay; type: functional, cell-based
MDA-MB-435 [13] = assay: Anticancer activity against human MDA-MB-435 cells assessed as cell growth inhibition by SRB assay; type: functional, cell-based
MDA-MB-435 [14] = assay: Growth inhibition of human MDA-MB-435 cells assessed as cell growth inhibition by SRB assay; type: functional
HCT-116 [15] = assay: Anticancer activity against human HCT-116 cells assessed as cell growth inhibition measured after 24 hrs by SRB assay; type: functional, cell-based; conditions: HCT-116, 24 h
MCF7 [16] = assay: Anticancer activity against human MCF7 cells assessed as cell growth inhibition measured after 24 hrs by SRB assay; type: functional, cell-based; conditions: MCF7, 24 h
Mahlavu = assay: Anticancer activity against human Mahlavu cells assessed as cell growth inhibition measured after 24 hrs by SRB assay; type: functional, cell-based
Huh-7 = assay: Anticancer activity against human Huh-7 cells assessed as cell growth inhibition measured after 24 hrs by SRB assay; type: functional, cell-based; conditions: Huh-7, 24 h
K562 = assay: Anticancer activity against human K562 cells assessed as cell growth inhibition measured after 48 hrs by WST-1 assay; type: functional, cell-based; conditions: K562, 48 h
MCF7 [17] = assay: Anticancer activity against human MCF7 cells assessed as cell growth inhibition measured after 48 hrs by WST-1 assay; type: functional, cell-based; conditions: MCF7, 48 h
A549 [18] = assay: Anticancer activity against human A549 cells assessed as cell growth inhibition measured after 24 hrs by MTT assay; type: functional, cell-based; conditions: A549, 24 h
Jurkat = assay: Anticancer activity against human Jurkat cells assessed as cell growth inhibition measured after 48 hrs by MTT assay; type: functional, cell-based
MCF7 [19] = assay: Anticancer activity against human MCF7 cells assessed as cell growth inhibition measured after 24 hrs by MTT assay; type: functional, cell-based; conditions: MCF7, 24 h
HT-29 = assay: Anticancer activity against human HT-29 cells assessed as cell growth inhibition measured after 24 hrs by MTT assay; type: functional, cell-based; conditions: HT-29, 24 h
A549 [20] = assay: Anticancer activity against human A549 cells assessed as cell viability at 50 ug/ml measured after 24 hrs by MTT assay relative to control; type: functional; conditions: read-out: Activity
A549 [21] = assay: Anticancer activity against human A549 cells assessed as cell viability at 100 ug/ml measured after 24 hrs by MTT assay relative to control; type: functional; conditions: read-out: Activity
A549 [22] = assay: Anticancer activity against human A549 cells assessed as cell viability measured after 24 hrs by MTT assay; type: functional, cell-based; conditions: A549, 24 h
P388 = assay: Anticancer activity against P388 cells assessed as cell growth inhibition; type: functional, cell-based; conditions: Mus musculus
HeLa = assay: Anticancer activity against human HeLa cells assessed as cell growth inhibition measured after 48 hrs by MTT assay; type: functional, cell-based
MCF7 [23] = assay: Anticancer activity against human MCF7 cells assessed as cell growth inhibition measured after 48 hrs by MTT assay; type: functional, cell-based; conditions: MCF7, 48 h
[24] = Cytotoxicity against human Chang liver cells assessed as cell growth inhibition measured after 24 hrs by DAPI and propidium iodide staining based assay; type: toxicity
MCF7 [25] = assay: Growth inhibition of human MCF7 cells assessed as cell growth inhibition by SRB assay; type: functional

O=C(/C=C/c1ccc(Cl)cc1Cl)[C@H]1[C@H](c2ccc(Cl)cc2Cl)[C@H]2CSCN2[C@]12C(=O)Nc1ccccc12
IC50 (PC-3 [1]): ≥ 2.7 µM | Ratio IC50 (PC-3 [2]): 1.8 | Ratio IC50 (HCT-116 [3]): 4 | IC50 (HepG2 [4]): 1 µM | IC50 (HCT-116 [5]): 2 µM | Ratio IC50 (HepG2 [6]): 2

O=C(c1c[nH]c2ccccc12)[C@@H]1[C@@H](c2cccc(F)c2)[C@@H]2CSCN2[C@@]12C(=O)Nc1ccccc12
IC50 (HCT-116 [7]): 9 µM | Ratio IC50 (PC-3 [2]): >2.9 | IC50 (PC-3 [8]): 8 µM | IC50 (HepG2 [9]): 5.5 µM

O=C(/C=C/c1cccc([N+](=O)[O-])c1)[C@H]1[C@H](c2cccc([N+](=O)[O-])c2)[C@H]2CSCN2C12C(=O)Nc1ccccc12 (stereo not given in full)
IC50 (PC-3 [1]): ≥ 2.7 µM | Ratio IC50 (PC-3 [2]): 1.8 | Ratio IC50 (HCT-116 [3]): 4 | IC50 (HepG2 [4]): 1 µM | IC50 (HCT-116 [5]): 2.5 µM | Ratio IC50 (HepG2 [6]): 2

NC(=O)[C@@H]1CCCN1C(=O)Cc1noc2ccccc12
IC50 (MCF7 [10]): 4.39 µM | IC50 (A549 [11]): 4.72 µM

N#CC1=C(N)OC2=C(C(=O)CO2)C12C(=O)Nc1ccc(I)cc12 (stereo not given)
IC50 (MCF7 [12]): ≥ 53 µM | IC50 (MDA-MB-435 [13]): ≥ 3.6 µM | GI50 (MDA-MB-435 [14]): 27.3 µM

CC(C)C[C@@H]1N2[C@H](c3ccccc3)[C@H](c3ccccc3)OC(=O)[C@H]2[C@H](c2ccc([N+](=O)[O-])cc2)[C@@]12C(=O)Nc1ccccc12
IC50 (HCT-116 [15]): 3.9 µM | IC50 (MCF7 [16]): 4.8 µM | IC50 (Mahlavu): 14.9 µM | IC50 (Huh-7): 77.8 µM

O=C1/C(=C/c2cccc(F)c2)CCC[C@]12[C@@H](c1cccc(F)c1)[C@@H]1CSCN1[C@]21C(=O)Nc2ccccc21
IC50 (K562): 15.7 µM | IC50 (MCF7 [17]): 15.3 µM

O=C(c1c[nH]c2ccccc12)[C@@H]1[C@@H](c2ccc(Br)cc2)[C@@H]2CSCN2[C@@]12C(=O)Nc1ccccc12
Ratio IC50 (PC-3 [2]): >3 | IC50 (PC-3 [8]): 7 µM | IC50 (HepG2 [9]): 5.5 µM

O=C(c1c[nH]c2ccccc12)[C@@H]1[C@@H](c2cccc(C(F)(F)F)c2)[C@@H]2CSCN2[C@@]12C(=O)Nc1ccccc12
IC50 (HCT-116 [7]): 7 µM | IC50 (HepG2 [9]): 5.5 µM

O=C(/C=C/c1ccc(Cl)cc1)[C@H]1[C@H](c2ccc(Cl)cc2)[C@H]2CSCN2[C@]12C(=O)Nc1ccccc12
IC50 (PC-3 [1]): ≥ 2.7 µM | Ratio IC50 (PC-3 [2]): 1.8 | Ratio IC50 (HCT-116 [3]): 4 | IC50 (HepG2 [4]): 1 µM | IC50 (HCT-116 [5]): 2.5 µM | Ratio IC50 (HepG2 [6]): 2

CC(C)C[C@@H]1N2[C@H](c3ccccc3)[C@H](c3ccccc3)OC(=O)[C@H]2[C@H](c2ccccc2Cl)[C@@]12C(=O)Nc1ccccc12
IC50 (HCT-116 [15]): 10.5 µM | IC50 (MCF7 [16]): 11.2 µM | IC50 (Mahlavu): 26.3 µM | IC50 (Huh-7): 36.6 µM

O=C1/C(=C/c2ccc(Br)cc2)CCC[C@]12[C@@H](c1ccc(Br)cc1)[C@@H]1CSCN1[C@]21C(=O)Nc2ccccc21
IC50 (K562): 14.7 µM | IC50 (MCF7 [17]): 15.3 µM

O=C1C2=CC=CC3C=CC=C(C23)C12N[C@@H](Cc1ccc(O)cc1)[C@@H]([N+](=O)[O-])[C@H]2c1ccc(Cl)cc1 (stereo not given in full)
IC50 (A549 [18]): 40.2 µM | IC50 (Jurkat): 33.6 µM

CC(C)(C)c1cc(/C=N/N2C(=O)c3ccccc3C2=O)c(O)c(C(C)(C)C)c1
IC50 (MCF7 [19]): 293 µM | IC50 (HT-29): 667 µM

O=C1CCC(=O)N1CN(Cc1ccccc1)Cc1ccccc1
viability at 50 µg/mL (A549 [20]): 78.8% | viability at 100 µg/mL (A549 [21]): 72% | IC50 (A549 [22]): 176 µg/mL (≈ 572 µM)

O=C(c1c[nH]c2ccccc12)[C@@H]1[C@@H](c2cccc(Br)c2)[C@@H]2CSCN2[C@@]12C(=O)Nc1ccccc12
IC50 (HCT-116 [7]): 9 µM | Ratio IC50 (PC-3 [2]): >2.9 | IC50 (PC-3 [8]): 8 µM | IC50 (HepG2 [9]): 5.5 µM

O=C(/C=C/c1ccc(O)c(O)c1)N1CCCC1
IC50 (P388): 53.5 µg/mL (≈ 229 µM)

CC[C@H](C)[C@H](NC(=O)OC(C(F)(F)F)C(F)(F)F)C(=O)N[C@@H](CC(C)C)C(=O)N1CCCC1C(=O)N[C@@H](CC(C)C)C(=O)N[C@H](C(=O)OC)C(C)C (stereo not given in full) (X1-IL[ξP]LV-OMe)
IC50 (HeLa): 2.73 µM

CC[C@H](C)[C@@H](CN[C@@H](Cc1ccccc1)C(=O)OC)NC(=O)[C@@H]1CCCN1C(=O)[C@H](CC(C)C)NC(=O)[C@@H]1CCCN1C(=O)[C@H](CC(C)C)NC(=O)OC(C(F)(F)F)C(F)(F)F (X1-LPLP-X2)
IC50 (HeLa): 4.3 µM

O=c1[nH]cc(F)c(=O)[nH]1 [FLUOROURACIL]
IC50 (MCF7 [10]): 45 µM | IC50 (MCF7 [17]): 78.3 µM | IC50 (HT-29): 80.6 µM | IC50 (MCF7 [23]): 45 µM

CC/C(=C(\c1ccccc1)c1ccc(OCCN(C)C)cc1)c1ccccc1 [TAMOXIFEN]
IC50 at 24 h [24]: 46.2 µM | IC50 (MCF7 [19]): 20.2 µM | GI50 (MCF7 [25]): < 10 µg/mL

Source: ChEMBL document CHEMBL5360530, “Structure activity relationship (SAR) and anticancer activity of pyrrolidine derivatives: Recent developments and future prospects (A review)” (Eur J Med Chem, 2023)
